Columns and labels:
Format in all cases: cell-based
human platelets = assay: collagen-evoked aggregation of washed human platelets
Description: Venous blood was obtained from healthy human subjects who had not taken NSAID's for at least two weeks. Blood was drawn into plastic syringes containing ACD. […] The platelet rich plasma was transferred into fresh plastic tubes and centrifuged at 400×g for 5 min. […] A platelet count was made, which determined the volume of platelet suspension needed to make up 350×10^6 cells for each measurement. The aliquot was diluted with medium to make 0.5 ml/assay/cuvette. Appropriate calibration of the aggregometer (PAP-4C) for 0% and 100% transmission was carried out through the use of a sample of platelet suspension and cell-free medium (37).
(§1) 0.5 ml of platelet suspension was added to siliconized glass tubes (four at a time) and heated with magnetic stirring to 37° for 1 min in a platelet aggregometer (PAP-4C). Either vehicle alone (ethanol, 1 μl) or hepoxilin analog was then added, followed two min later by agonist (collagen: 2 μg; PGH2: 100 ng/0.5 ml; U46619: 10 ng/0.5 ml or I-BOP: 2 ng/0.5 ml). The response was recorded for the next 5 min. In experiments where analysis of TxB2 and HHT were to be made by HPLC, the platelet suspension at the end of the experiment was diluted with ethyl acetate, 100 ng of prostaglandin B1 was added as internal standard, and the mixture was acidified to pH 3 with 0.1 N HCl. After centrifugation, the organic layer was separated, washed twice with water to neutrality, and evaporated to dryness. Half of the sample was taken and was resuspended in 1 ml ethyl acetate containing 20 μg ADAM reagent, and was left in the dark for 2 h (38). The solvent was then evaporated and the residue was acetylated with a solution of pyridine/acetic anhydride (3/1, v/v) during 16 h at 23°. The reagents were evaporated to dryness and the residue was resuspended in acetonitrile/water for HPLC analysis. In experiments where the conversion of tritiated PGH2 was to be monitored, the procedure described above was repeated with tritiated PGH2 instead of unlabeled PGH2. After extraction of the sample as described above, the radiolabeled compounds were analyzed by TLC. Dose response curves for varying amounts of test compounds were generated and the data expressed as % inhibition of collagen-induced platelet aggregation. Each point was investigated 5 times and statistical analysis of the data was carried out using Macintosh Statview statistical software.

Plase A2 = assay: AA formed in collagen-treated washed human platelets (Plase A2), HPLC; settings: for Plase A2 enzyme activity (% of control values, mean ± SD): n = 3
Description: as §1
Measurement of eicosanoids formed by platelets during treatment with collagen or the TP receptor agonists in the presence or absence of PBT-3 was carried out by HPLC after appropriate derivatization with a fluorescent tag (anthracyl diazomethane—ADAM) which forms a fluorescent ester (44). The method was adapted to measure the following compounds: TxB2, HHT, 12-HETE and M. The platelet suspension at the end of the experiment was mixed with ethyl acetate, 100 ng of prostaglandin B1 was added as internal standard and the mixture was acidified to pH 3 with 0.1 N HCl. After centrifugation, the organic layer was separated, washed twice with water to neutrality, and evaporated to dryness. The residue was resuspended in ethyl acetate and half of the sample was taken. It was diluted to 0.2 ml with ethyl acetate containing 20 μg ADAM reagent, and was left in the dark for 2 h. The solvent was then evaporated and the residue was acetylated with a solution of pyridine/acetic anhydride (3/1, v/v) for 16 h at 23°. The reagents were evaporated to dryness and the residue was resuspended in acetonitrile/water for HPLC analysis. Dose response curves for varying amounts of test compounds were generated and the data were expressed as % inhibition of agonist-induced platelet aggregation. Each point was investigated 3 times and statistical analysis of the data was carried out using Macintosh Statview statistical software.
Analysis of the anthryl (ADAM)-acetate derivative of TxB2, HHT and 12 HETE in the extracted platelet samples was carried out on a Hewlett Packard (1100 series) HPLC to which was attached a Shimadzu fluorescent detector (RF-10AXL). The detector was operated with excitation at 364 nm, emission at 411 nm. […]

TP receptor = target: T1, TP receptor (Homo sapiens, UniProt P21731); assay: platelet aggregation evoked by the TxA2 mimic U46619
T1 construct: endogenous in cells; host or cells: washed human platelets
T1 sequence (P21731 1-343): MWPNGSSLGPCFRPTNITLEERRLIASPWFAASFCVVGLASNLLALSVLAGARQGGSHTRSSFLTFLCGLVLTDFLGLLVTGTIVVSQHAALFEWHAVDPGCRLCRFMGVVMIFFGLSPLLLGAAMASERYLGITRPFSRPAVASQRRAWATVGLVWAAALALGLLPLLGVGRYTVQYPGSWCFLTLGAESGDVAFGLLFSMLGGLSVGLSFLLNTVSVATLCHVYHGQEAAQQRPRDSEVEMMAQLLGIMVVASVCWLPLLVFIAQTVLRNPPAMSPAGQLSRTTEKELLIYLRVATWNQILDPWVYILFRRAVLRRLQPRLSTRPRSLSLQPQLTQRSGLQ
Description: Venous blood was obtained from healthy human subjects who had not taken NSAID's for at least two weeks. Blood was drawn into plastic syringes containing ACD. It was immediately centrifuged at 23° at 200×g for 15 min. The platelet rich plasma was transferred into fresh plastic tubes and centrifuged at 400×g for 5 min. The supernatant was discarded and the platelet sediment was resuspended in fresh medium containing NaCl (137 mM), KCl (1 mM), NaH2PO4, glucose (5.5 mM), HEPES (20 mM) and CaCl2 (1 mM) and allowed to stand at room temperature for 30 min. A platelet count was made, which determined the volume of platelet suspension needed to make up 350×10^6 cells for each measurement. The aliquot was diluted with medium to make 0.5 ml/assay/cuvette. Appropriate calibration of the aggregometer (PAP-4C) for 0% and 100% transmission was carried out through the use of a sample of platelet suspension and cell-free medium (37).
as §1

IC50 (human platelets; Homo sapiens, Platelet, washed human platelets, collagen 2 μg, read-out: IC50 for inhibition of collagen-evoked aggregation): ~800 nM
effect on U46619-induced aggregation in aspirin-treated platelets (TP receptor; PBT-3 added after aspirin, before U46619): blockade of the aggregation
IC50 (TP receptor; U46619 10 ng/0.5 ml, read-out: IC50 for inhibition of aggregation evoked by U46619): 700 nM
inhibition of aggregation evoked by U46619 (TP receptor; dose of 1 μg): inhibited the aggregation
Compound: CCCCC/C=C\CC1CC1[C@@H](O)/C=C\C/C=C\CCCC(=O)OC (stereo partly drawn) [PBT-3, 10(S)-hydroxy-11,12-cyclopropyl-eicosa-5Z,8Z,14Z-trienoic acid methyl ester]
inhibition of collagen-evoked aggregation (human platelets; single dose 1 μg added 2 min prior to collagen (2 μg), 350×10^6 washed human platelets in 0.5 ml): inhibited the collagen effect, with PBT-3 being the most potent
Plase A2 enzyme activity (% of control values, mean ± SD) (Plase A2; PBT-3 0.05 μM): 100.0 ± 6.9^NS % of control
Plase A2 enzyme activity (% of control values, mean ± SD) (Plase A2; PBT-3 0.30 μM): 91.9 ± 5.6^NS % of control
Plase A2 enzyme activity (% of control values, mean ± SD) (Plase A2; PBT-3 0.60 μM): 89.5 ± 15.6^NS % of control
Plase A2 enzyme activity (% of control values, mean ± SD) (Plase A2; PBT-3 3.00 μM): 120.8 ± 18.3^NS % of control
inhibition of Plase A2, in words (Plase A2; relatively large amounts of PBT-3, about 3-4 log doses greater than required to inhibit the TP receptor): Neither COX-1, COX-2,12-LOX nor Plase A2 was inhibited

From US8071654B2, “Inhibitors of thromboxane formation and action” (priority 2000, dated 2011)
